Read-outs that look alike come from different tables or passages of the source. *1 amine or outer side, *2 acyl side, *3 side chain or, on linkers, in order; H or OH if unused. Where a SMILES comes first, the peptide text is derived from it. Bridges are numbered along the chain shown (N, C = ends). Roman numbers before positions name the chains, in order. [ ]: non-standard residue; d: D form. The star is where a group is joined. X4 = CC(=O)N[C@@H](CSC1CC(=O)N(CCCCCC(=O)[*:2])C1=O)C(=O)NCCOCCOCCOCCOCCOCCOCCC(=O)[*:1]; Exatecan = CC[C@@]1(O)C(=O)OCc2c1cc1n(c2=O)Cc2c-1nc1cc(F)c(C)c3c1c2[C@@H](N*)CC3; X1 = O=C(O)[C@H]1O[C@@H](Oc2ccc(COC(=O)[*:2])cc2N[*:1])[C@H](O)[C@@H](O)[C@@H]1O; Hexanoyl(6-succinimido-3yl) = O=C1CC([*:1])C(=O)N1CCCCCC(=O)[*:2]; Dolaproine = CO[C@@H]([C@@H]1CCCN1)[C@@H](C)C(=O)O; X3 = O=C(CCCCCN1C(=O)CC([*:1])C1=O)NCCC(=O)[*:2]; Dil = CC[C@H](C)[C@H](NC)[C@@H](CC(=O)O)OC; PEG6 = NCCOCCOCCOCCOCCOCCOCCC(=O)O; NHCH2OCH2CO = O=C(COCN[*:1])[*:2]; X2 = C[C@@H](N*)[C@@H](O)c1ccccc1; NMeV = CN[C@H](C(=O)O)C(C)C; AEEA = NCCOCCOCC(=O)O
Columns and labels:
NCI-H69 = assay: Cell killing in NCI-H69 by CGT (CellTiter-Glo); format: cell-based; settings: NCI-H69, 96 h; for Bottom (Inhibition at Lowest Point) / Top (Inhibition at Highest Point): Inh% relative to DMSO control, 4-parameter fit
Description: Approximately 5 µL of the PDC was added to the corresponding wells of the plate, and compared with DMSO (control, without the PDC of the present application), PTX, MMAE, and Dxd wells. The final concentration of DMSO in each well was 0.2%; • (5) The cells were incubated in a 5% CO2 incubator at 37°C for 96 h; • (6) The cell culture plate was equilibrated to room temperature, and 50 µL of CellTiter-Glo® Reagent was added to each well; • (7) The plate was placed on a shaker for 2 min to ensure complete cell lysis; • (8) After mixing, the plate was placed at room temperature to react for 10 min. The fluorescence value (in RLU) was read when the signal became stable. • c) Data analysis • (1) The inhibition (Inh %) relative to the DMSO control was calculated as follows: Inhibition (Inh%)= 100 -(RLU of compound - RLU of DMSO control)/ (RLU of DMSO control - RLU of blank)*100% • (2) The data were analyzed using Graphpad 5.0 software. A 4-parameter equation was fitted to generate a concentration-response curve to obtain the IC50. Table 3: Test Results of Cell Killing in NCI-H69

SSTR2 = biological target: T1, SSTR2 (Homo sapiens, UniProt P30874); assay: SSTR2 cAMP test; format: cell-based; settings: for activity at 50 µM: Max Dose 50000 nM; for EC50: SSTR2/CHO cells, Forskolin, cAMP activation rate
T1 construct: expressed in transfected cells; host or cells: CHO cells (SSTR2/CHO)
T1 sequence (P30874 whole entry): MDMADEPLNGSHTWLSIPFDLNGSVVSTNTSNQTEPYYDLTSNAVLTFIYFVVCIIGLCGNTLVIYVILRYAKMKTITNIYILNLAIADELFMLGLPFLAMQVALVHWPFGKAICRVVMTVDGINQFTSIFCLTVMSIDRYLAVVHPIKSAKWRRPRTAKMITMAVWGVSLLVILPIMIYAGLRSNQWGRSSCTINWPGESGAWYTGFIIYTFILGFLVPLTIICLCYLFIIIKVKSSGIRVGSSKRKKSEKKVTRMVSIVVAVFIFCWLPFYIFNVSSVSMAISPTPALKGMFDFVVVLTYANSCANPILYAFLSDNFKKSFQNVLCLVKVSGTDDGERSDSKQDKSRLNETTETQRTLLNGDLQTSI
Description: • 1) Compound preparation: The test compound was diluted by 4-fold with DMSO to obtain 10 different concentration points. Approximately 100 nL of the diluted compound was then transferred to a cell reaction plate and centrifuged for later use. • 2) Cell preparation:The cultured SSTR2/CHO cells were collected into a sterile centrifuge tube, and the supernatant was discarded by centrifugation. • 3) The cells were resuspended in assay buffer, counted using a Vi-cell counter, and diluted with assay buffer. • 4) Approximately 100 nL of 100 µM Forskolin was transferred into the cell reaction plate using an Echo and centrifuged. Then, 10 µL of assay buffer containing the cells was added and incubated. • 5) Approximately 10 µL of cAMP detection reagent solution was added to the corresponding wells of the cell reaction plate, and incubated at room temperature in the dark. • 6) The plate was read using a microplate reader. The final value was determined as the ratio of OD at 665 nm to that at 615 nm. • 7) The cAMP value was calculated for each well: Activity (%)=(signal value of sample well - mean signal value of low-signal control wells)/ (mean signal value of high-signal control wells - mean signal value of low-signal control wells). Fitting was performed using the "Nonlinear regression (curve fit)-log(agonist) vs. response -- Variable slope" model in GraphPad Prism 5.0, with the log-transformed compound concentration on the x-axis and cAMP activation rate on the y-axis. The EC50 value of the sample was calculated accordingly. Table 2: SSTR2 cAMP Test Results

| Compound | Bottom (Inhibition at Lowest Point) (NCI-H69) | Top (Inhibition at Highest Point) (NCI-H69) | IC50 (NCI-H69) [nM] | activity at 50 µM (SSTR2) [%] | EC50 (SSTR2) [nM] | further results |
| --- | --- | --- | --- | --- | --- | --- |
| CCC(C)C(C(CC(=O)N1CCCC1C(OC)C(C)C(=O)NC(C)C(O)c1ccccc1)OC)N(C)C(=O)C(NC(=O)C(NC)C(C)C)C(C)C (centres unmarked) [MMAE] | 0.31 | 85.99 |  |  |  | IC50 (NCI-H69; Homo sapiens, read-out: IC50): 0.57 nM |
| CC[C@@]1(O)C(=O)OCc2c1cc1n(c2=O)Cc2c-1nc1cc(F)c(C)c3c1c2[C@@H](NC(=O)COCNC(=O)CNC(=O)[C@H](Cc1ccccc1)NC(=O)CNC(=O)CNC(=O)CCCCCN1C(=O)CC(SC[C@H](NC(C)=O)C(=O)NCCOCCOCCOCCOCCOCCOCCC(=O)NCCCC[C@H](NC(=O)CCOCCOCCOCCOCCOCCOCCNC(=O)[C@H](CSC2CC(=O)N(CCCCCC(=O)NCC(=O)NCC(=O)N[C@@H](Cc4ccccc4)C(=O)NCC(=O)NCOCC(=O)N[C@H]4CCc5c(C)c(F)cc6nc7c(c4c56)Cn4c-7cc5c(c4=O)COC(=O)[C@]5(O)CC)C2=O)NC(C)=O)C(=O)N[C@@H](CCCCNC(=O)CCOCCOCCOCCOCCOCCOCCNC(=O)[C@H](CSC2CC(=O)N(CCCCCC(=O)NCC(=O)NCC(=O)N[C@@H](Cc4ccccc4)C(=O)NCC(=O)NCOCC(=O)N[C@H]4CCc5c(C)c(F)cc6nc7c(c4c56)Cn4c-7cc5c(c4=O)COC(=O)[C@]5(O)CC)C2=O)NC(C)=O)C(=O)NCCOCCOCCOCCOCCOCCOCCC(=O)N[C@@H](CCCNC(=N)N)C(=O)N[C@@H](CCCNC(=N)N)C(=O)N[C@@H](CC(C)C)C(=O)N[C@@H](Cc2ccccc2)C(=O)N[C@H]2CSSC[C@@H](C(=O)N[C@H](C(=O)N[C@@H](Cc4c[nH]c5ccccc45)C(=O)N[C@@H](CCCNC(=N)N)C(=O)N[C@@H](CC(=O)O)C(N)=O)[C@@H](C)O)NC(=O)[C@H]([C@@H](C)O)NC(=O)[C@H](CCCCN)NC(=O)[C@@H](Cc4c[nH]c5ccccc45)NC(=O)[C@H](Cc4ccc(O)cc4)NC2=O)C1=O)CC3 (stereo partly drawn) [Example 7, Ac-Cys(MC-Gly-Gly-Phe-Gly-NH-CH2-Dxd)-PEG6-Lys(Ac-Cys(MC-Gly-Gly-Phe-Gly-NH-CH2-Dxd)-PEG6)-Lys(Ac-Cys(MC-Gly-Gly-Phe-Gly-NH-CH2-Dxd)-PEG6)-PEG6-Arg-Arg-Leu-Phe-[Cys-Tyr-D-Trp-Lys-Thr-Cys]-Thr-Trp-Arg-Asp-NH2] (I: Ac-C[PEG6]KK[PEG6]RRLFCY[dW]KTCTWRD-NH2 / II: GGFG[NHCH2OCH2CO]-Exatecan / III: GGFG[NHCH2OCH2CO]-Exatecan / IV: GGFG[NHCH2OCH2CO]-Exatecan; linker I:1-III:N via Hexanoyl(6-succinimido-3yl); linker I:3-II:N, I:4-IV:N via X4; disulfide I:10-I:15) |  |  | 122 | 54.4 | 23400 |  |
| CC(=O)O[C@H]1C(=O)[C@@]2(C)[C@H]([C@H](OC(=O)c3ccccc3)[C@]3(O)C[C@H](OC(=O)[C@H](O)[C@@H](NC(=O)c4ccccc4)c4ccccc4)C(C)=C1C3(C)C)[C@]1(OC(C)=O)CO[C@@H]1C[C@@H]2O [PTX] | 0.47 | 78.37 |  |  |  | IC50 (NCI-H69; read-out: IC50): 3.74 nM |
| CC[C@@]1(O)C(=O)OCc2c1cc1n(c2=O)Cc2c-1nc1cc(F)c(C)c3c1c2[C@@H](NC(=O)COCNC(=O)CNC(=O)[C@H](Cc1ccccc1)NC(=O)CNC(=O)CNC(=O)CCCCCN1C(=O)CC(SC[C@H](NC(=O)CCOCCOCCOCCOCCOCCOCCN)C(=O)NCCOCCOCCOCCOCCOCCOCCC(=O)N[C@@H](CCCNC(=N)N)C(=O)N[C@@H](CCCNC(=N)N)C(=O)N[C@@H](CC(C)C)C(=O)N[C@@H](Cc2ccccc2)C(=O)N[C@H]2CSSC[C@@H](C(=O)N[C@H](C(=O)N[C@@H](Cc4c[nH]c5ccccc45)C(=O)N[C@@H](CCCNC(=N)N)C(=O)N[C@@H](CC(=O)O)C(N)=O)[C@@H](C)O)NC(=O)[C@H]([C@@H](C)O)NC(=O)[C@H](CCCCN)NC(=O)[C@@H](Cc4c[nH]c5ccccc45)NC(=O)[C@H](Cc4ccc(O)cc4)NC2=O)C1=O)CC3 (stereo partly drawn) [Example 5, PEG6-Cys(MC-Gly-Gly-Phe-Gly-NH-CH2-Dxd)-PEG6-Arg-Arg-Leu-Phe-[Cys-Tyr-D-Trp-Lys-Thr-Cys]-Thr-Trp-Arg-Asp-NH2] (I: H-[PEG6]C[PEG6]RRLFCY[dW]KTCTWRD-NH2 / II: GGFG[NHCH2OCH2CO]-Exatecan; linker I:2-II:N via Hexanoyl(6-succinimido-3yl); disulfide I:8-I:13) |  |  | 316 | 83.5 | 155 |  |
| CC[C@@]1(O)C(=O)OCc2c1cc1n(c2=O)Cc2c-1nc1cc(F)c(C)c3c1c2[C@@H](NC(=O)CO)CC3 [Dxd] | = 0.0 | 98.19 |  |  |  | IC50 (NCI-H69; Homo sapiens): 7.53 nM |
| CC(C)C[C@H](NC(=O)[C@H](CCCNC(=N)N)NC(=O)[C@@H](N)CCCNC(=N)N)C(=O)N[C@@H](Cc1ccccc1)C(=O)N[C@H]1CSSC[C@@H](C(=O)N[C@H](C(=O)N[C@@H](Cc2c[nH]c3ccccc23)C(=O)N[C@@H](CCCNC(=N)N)C(=O)N[C@@H](CC(=O)O)C(N)=O)[C@@H](C)O)NC(=O)[C@H]([C@@H](C)O)NC(=O)[C@H](CCCCN)NC(=O)[C@@H](Cc2c[nH]c3ccccc23)NC(=O)[C@H](Cc2ccccc2)NC1=O [SEQ ID No. 2, H-Arg-Arg-Leu-Phe-[Cys-Phe-D-Trp-Lys-Thr-Cys]-Thr-Trp-Arg-Asp-NH2] (H-RRLFCF[dW]KTCTWRD-NH2; disulfide 5-10) |  |  |  |  | 35.4 | activity at 150 µM (SSTR2; Max Dose 150000 nM): 99.1% |
| CC[C@H](C)[C@@H]([C@@H](CC(=O)N1CCC[C@H]1[C@H](OC)[C@@H](C)C(=O)N[C@H](C)[C@@H](O)c1ccccc1)OC)N(C)C(=O)[C@@H](NC(=O)[C@H](C(C)C)N(C)C(=O)OCc1ccc(O[C@@H]2O[C@H](C(=O)O)[C@@H](O)[C@H](O)[C@H]2O)c(NC(=O)CCNC(=O)CCCCCN2C(=O)CC(SC[C@H](NC(C)=O)C(=O)NCCOCCOCC(=O)NCCOCCOCC(=O)NCCOCCOCC(=O)N[C@@H](CCCNC(=N)N)C(=O)N[C@@H](CCCNC(=N)N)C(=O)N[C@@H](CC(C)C)C(=O)N[C@@H](Cc3ccccc3)C(=O)N[C@H]3CSSC[C@@H](C(=O)N[C@H](C(=O)N[C@@H](Cc4c[nH]c5ccccc45)C(=O)N[C@@H](CCCNC(=N)N)C(=O)N[C@@H](CC(=O)O)C(N)=O)[C@@H](C)O)NC(=O)[C@H]([C@@H](C)O)NC(=O)[C@H](CCCCN)NC(=O)[C@@H](Cc4c[nH]c5ccccc45)NC(=O)[C@H](Cc4ccc(O)cc4)NC3=O)C2=O)c1)C(C)C (stereo partly drawn) [Example 4, Ac-Cys(MC-betaglucuronide-MMAE)-AEEA-AEEA-AEEA-Arg-Arg-Leu-Phe-[Cys-Tyr-D-Trp-Lys-Thr-Cys]-Thr-Trp-Arg-Asp-NH2] (I: Ac-C[AEEA][AEEA][AEEA]RRLFCY[dW]KTCTWRD-NH2 / II: [X1][NMeV]V[Dil][Dolaproine]-X2; linker I:1-II:N via X3; disulfide I:9-I:14) | 3.88 | 75.08 |  | 95.2 |  |  |
| CC[C@@]1(O)C(=O)OCc2c1cc1n(c2=O)Cc2c-1nc1cc(F)c(C)c3c1c2[C@@H](NC(=O)COCNC(=O)CNC(=O)[C@H](Cc1ccccc1)NC(=O)CNC(=O)CNC(=O)CCCCCN1C(=O)CC(SC[C@H](NC(C)=O)C(=O)NCCOCCOCCOCCOCCOCCOCCC(=O)N[C@@H](CCCNC(=N)N)C(=O)N[C@@H](CCCNC(=N)N)C(=O)N[C@@H](CC(C)C)C(=O)N[C@@H](Cc2ccccc2)C(=O)N[C@H]2CSSC[C@@H](C(=O)N[C@H](C(=O)N[C@@H](Cc4c[nH]c5ccccc45)C(=O)N[C@@H](CCCNC(=N)N)C(=O)N[C@@H](CC(=O)O)C(N)=O)[C@@H](C)O)NC(=O)[C@H]([C@@H](C)O)NC(=O)[C@H](CCCCN)NC(=O)[C@@H](Cc4c[nH]c5ccccc45)NC(=O)[C@H](Cc4ccc(O)cc4)NC2=O)C1=O)CC3 (stereo partly drawn) [Example 6, Ac-Cys(MC-Gly-Gly-Phe-Gly-NH-CH2-Dxd)-PEG6-Arg-Arg-Leu-Phe-[Cys-Tyr-D-Trp-Lys-Thr-Cys]-Thr-Trp-Arg-Asp-NH2] (I: Ac-C[PEG6]RRLFCY[dW]KTCTWRD-NH2 / II: GGFG[NHCH2OCH2CO]-Exatecan; linker I:1-II:N via Hexanoyl(6-succinimido-3yl); disulfide I:7-I:12) |  |  | 276 | 67.8 | 148 |  |

From patent EP4772530A1, “PEPTIDE TARGETING SOMATOSTATIN RECEPTOR, DRUG CONJUGATE AND USE THEREOF” (Mainline Biosciences (Shanghai) Co., Ltd., priority 2023, dated 2025)
